Where two headings read alike, the source gives them in different places. Peptide text beside a SMILES is read from it.
Tests used:
[1] = system: V. vulnificus; test: Membrane perturbation, NPN uptake; format: cell-based, Vibrio vulnificus; details: 1×10^6 CFU/ml, 30 minutes, 40 μmol/L NPN; kanamycin: slight increase only
Experimental: We used previously reported methods for the membrane perturbation assay. Briefly, a single colony of V. vulnificus was cultured in TSB medium for 480 minutes at 28°C, and the adjusted culture (1×10^6 CFU/ml) was aliquoted into different tubes with or without TP4 or TP3. After incubating the cells for 30 minutes, we added 40 μmol/L 1-N-phenylnaphthylamine (NPN) and continued to incubate the cells. Tubes containing PBS with NPN and bacterial cells with NPN served as controls. The NPN fluorescence intensity was detected using a fluorescence ELISA reader. All experiments were performed in triplicate, and the results are expressed as means with standard errors (SE).

[2] = in vivo; set-up: species or system tilapia (Oreochromis hybrids, Tilapia spp.); details: iv, 0.2 mg/kg
Experimental: The peptide half-life of TP3 and TP4 were investigated in male tilapia (Oreochromis hybrids, Tilapia spp., with a mean body length of 32.33±1.5 cm and a mean body weight of 1117±78.2 g) after intravenous administration of a single dose of 0.2 mg/kg of peptide. The TP3 and TP4 concentrations in serum samples were determined at 10, 30, 60, 120, 180, 240, 300, and 360 minutes for TP3 and at 10, 60, 120, 180, 240, 300, and 360 minutes after dosing for TP4. At each sample collection time point, we anesthetized three fish and collected their blood. The blood was centrifuged to obtain fish serum, which was assessed by liquid chromatography-mass spectrometry/mass spectrometry (LC-MS/MS) at Mission Biotech (Taipei, Taiwan).

[3] = system: tilapia; test: Toxicity of peptide alone, tilapia survival; format: in vivo, tilapia (Oreochromis spp.); details: abdominal cavity, no infection, seven days (S2 Fig)
Experimental: The antimicrobial activities of TP3 and TP4 peptides were analyzed in tilapia infected with lethal amounts of bacteria. Different amounts of V. vulnificus were injected into the abdominal cavities of the fish, and survival rates were recorded as cumulative percentages (S1 Fig). To determine whether TP3 and TP4 had any toxic effects on the tilapia, we injected different doses of TP3 and TP4 (0.1, 1, 10, 20, 30, 40, or 50 μg/fish) into the abdominal cavity and recorded the cumulative survival percentage of the fish (S2 Fig). We also co-treated tilapia with different doses (0.1, 1, 10, 20 μg/fish) of TP3 or TP4 combined with 2x10^4 CFU of V. vulnificus to evaluate tilapia survival following treatment. […] After 14, 21, or 28 days following the first co-treatment with TP3, the tilapia that survived in the 20 μg/fish TP3 experimental group were injected with a second dose of 2x10^4 CFU of V. vulnificus, and the survival rates were measured for another seven days. […] In the co-treatment experiments, at 14, 21, or 28 days after the first co-treatment with TP4, the surviving tilapia in the 20 μg/fish TP4 experimental group received a second injection of 2x10^4 CFU of V. vulnificus, and the survival rates were measured for another seven days.
Supplementary file pone.0169678.s002.pdf: S2 Fig Determination of tilapia survival rates seven days after injection with different concentrations of TP3 or TP4. (a) The survival rates of tilapia injected with TP3 at a dose of 0.1 μg/fish, 1 μg/fish, or 10 μg/fish. (b) The percentage of tilapia surviving after injection with TP4 at 0.1 μg/fish, 1 μg/fish, or 10 μg/fish. (c) The percentage of tilapia surviving after injection with TP3 at 20 μg/fish, 30 μg/fish, 40 μg/fish, or 50 μg/fish. (d) The percentage of tilapia surviving after injection with TP4 at 20 μg/fish, 30 μg/fish, 40 μg/fish, or 50 μg/fish. The control group (control) was injected with PBS alone. (PDF) Click here for additional data file.

[4] = system: V. vulnificus; format: cell-based, Vibrio vulnificus
Experimental: To understand the effects of pH on TP3 or TP4, the reagents were dissolved in ddH2O, 1 M HCl or 1 M NaOH to obtain solutions with different pH values. For the temperature-dependent functional study, the TP3 or TP4 was added to a solution in a water bath (Basic life, model BL3002, Taiwan) and incubated for 60 minutes at different temperatures (40, 60, 80, or 100°C). To evaluate the effects of TP3 and TP4 on pepsin and trypsin function, each peptide was incubated for 10 or 30 minutes with different concentrations of pepsin or trypsin (0.1, 1, or 10 μg/ml), and we determined the MIC values after incubating these solutions with cells at 28°C for 720 minutes, according to a previously described MIC experimental protocol.

## CC[C@H](C)[C@H](NC(=O)[C@H](CC(C)C)NC(=O)[C@H](CO)NC(=O)[C@H](Cc1c[nH]cn1)NC(=O)[C@@H](NC(=O)[C@H](Cc1c[nH]cn1)NC(=O)[C@H](CCCCN)NC(=O)CNC(=O)[C@@H](NC(=O)[C@H](CO)NC(=O)[C@H](Cc1ccccc1)NC(=O)[C@H](CC(C)C)NC(=O)CNC(=O)CNC(=O)[C@@H](NC(=O)[C@@H](NC(=O)[C@H](Cc1c[nH]cn1)NC(=O)[C@H](Cc1c[nH]cn1)NC(=O)[C@@H](NC(=O)[C@@H](N)Cc1ccccc1)[C@@H](C)CC)[C@@H](C)CC)[C@@H](C)CC)C(C)C)[C@@H](C)CC)C(=O)N[C@@H](Cc1c[nH]cn1)C(=O)NCC(=O)N[C@@H](Cc1c[nH]cn1)C(=O)O [TP3, tilapia piscidin 3] (H-FIHHIIGGLFSVGKHIHSLIHGH-OH)
[1]
  concentration that increased NPN fluorescence: 60 µg/mL
[2]
  half-life of the injected peptide in tilapia serum: 2 to 3 h
[3]; 20 μg/fish
  percent survival after injection of peptide only: 86.7%
[3]; 30 μg/fish
  percent survival after injection of peptide only: 73.3%
[3]; 40 μg/fish
  percent survival after injection of peptide only: 66.7%
[3]; 50 μg/fish
  percent survival after injection of peptide only: 56.7%

## CC[C@H](C)[C@H](NC(=O)[C@H](C)NC(=O)[C@H](CCCCN)NC(=O)CNC(=O)[C@H](C)NC(=O)[C@H](CO)NC(=O)[C@H](Cc1ccccc1)NC(=O)[C@H](CC(C)C)NC(=O)CNC(=O)CNC(=O)[C@@H](NC(=O)[C@@H](NC(=O)[C@H](Cc1c[nH]cn1)NC(=O)[C@H](Cc1c[nH]cn1)NC(=O)[C@@H](NC(=O)[C@@H](N)Cc1ccccc1)[C@@H](C)CC)[C@@H](C)CC)[C@@H](C)CC)C(=O)N[C@@H](Cc1c[nH]cn1)C(=O)N[C@@H](CCCNC(=N)N)C(=O)N[C@@H](CC(C)C)C(=O)N[C@H](C(=O)N[C@@H](CCCNC(=N)N)C(=O)N[C@@H](CCCNC(=N)N)C(=O)N[C@@H](CCCNC(=N)N)C(=O)N[C@@H](CCCNC(=N)N)C(=O)N[C@@H](CCCNC(=N)N)C(=O)O)[C@@H](C)CC [TP4, tilapia piscidin 4] (H-FIHHIIGGLFSAGKAIHRLIRRRRR-OH)
[1]
  concentration that increased NPN fluorescence: 8 µg/mL
[4]; pepsin 0.1 μg/ml, 30 minutes
  decrease of antimicrobial activity: eight-fold
[4]; pepsin 1 μg/ml, 10 minutes
  decrease of antimicrobial activity: two-fold
[4]; trypsin 1 μg/ml, 10 minutes
  decrease of antimicrobial activity: two-fold
[4]; trypsin 1 μg/ml, 30 minutes
  decrease of antimicrobial activity: four-fold
[4]; trypsin 10 μg/ml, 10 minutes
  decrease of antimicrobial activity: eight-fold

From publication PMC5234776, “Study of the Antimicrobial Activity of Tilapia Piscidin 3 (TP3) and TP4 and Their Effects on Immune Functions in Hybrid Tilapia (Oreochromis spp.)” (PLoS ONE, 2017)
